Test results reported in US20250186419A1, “DOSING REGIMENS FOR TREATING PAIN” (VERTEX PHARMACEUTICALS INCORPORATED, priority 2023, published 2025).
Entries after “also recorded” stand apart in the source; their conditions may differ.

Key:
[1] = tested on: painful diabetic peripheral neuropathy (DPN); assay: Randomized, double-blind, active-controlled, dose-ranging, 4-arm study of Compound 1 in painful diabetic peripheral neuropathy (Example 8)
Text: The study population included male and female subjects 18 through 80 years of age, inclusive, with presence of bilateral pain in lower extremities due to DPN for at least 1 year, and weekly average Numeric Pain Rating Scale (NPRS) pain score of ≥4.
Subjects who met eligibility criteria entered a 7-day Run-in Period to establish their baseline Numeric Pain Rating Scale (NPRS) pain score and Daily Sleep Interference Scale (DSIS) score. Subjects with a baseline average NPRS score of ≥4 points with limited variation (SD<25% of mean) were eligible for the 12-week Treatment Period followed by a Safety Follow-up Visit.
Randomization was stratified by sex (female and male) and body mass index (≥30 and <30 kg/m^2). To maintain the blind, all subjects received the same number of tablets once daily (qd) in the morning and the same number of capsules 3 times per day (tid) in a double-dummy design.
Acetaminophen was be permitted as a pain rescue medication as needed (prn) throughout the study. Subjects were permitted to take 500 mg of acetaminophen every 4 to 6 hours as needed, up to a maximum of 2500 mg in any 24-hour period.
The reference drug was administered orally in a 100 mg capsule tid.
From Day −7 through Week 12, subjects reported their average daily pain during the last 24 hours on the NPRS via e-diary; during the treatment period, the NPRS was completed in the morning before the first daily dose. Subjects also reported their current pain score before each administration of rescue medication. The NPRS scores from the daily e-diary, especially the change from baseline in the weekly average at Week 12, were used in the primary endpoint analysis, and the proportion of subjects with ≥30%, ≥50%, and ≥70% reduction in weekly average scores, especially at Week 12, as reported in the daily e-diary were used in the secondary endpoint analyses. For the primary endpoint, daily NPRS scores were averaged over a weekly period to reduce the impact of individual high or low pain scores.
Daily Sleep Interference Scale (DSIS): Pain frequently interferes with sleep, and sleep is important to quality of life. The FDA recommends evaluating the effect of analgesics on sleep. DSIS is commonly used in neuropathic pain studies and is assessed on an 11-point scale. The 11 point scale ranges from 0 (none) to 10 (severe). The DSIS was completed each morning before the first daily dose in an e-diary to describe how pain interfered with the subject's sleep. The change from baseline in the weekly average of DSIS, especially at Week 12, was used in the secondary endpoint analysis.
Patient Global Impression of Change (PGIC): The PGIC is commonly used in neuropathic pain studies, and the Initiative on Methods, Measurement, and Pain Assessment in Clinical Trials (IMMPACT) group recommends it as a core outcome measure for chronic pain studies and is thus evaluated in this study. There is some evidence that PGIC may be more sensitive in neuropathic pain studies than pain intensity assessments because it may assess additional quality of life measures. The assessment consists of a single item on a 7-point scale from 1 (very much improved) to 7 (very much worse). The PGIC was completed at selected study visits to quantify the change in subjects' overall status. The proportion of subjects categorized as improved on the PGIC assessment, especially at Week 12, was used in the secondary endpoint analysis.
Proportion of subjects using Rescue Medication and Total Medication Usage: Acetaminophen was permitted as a pain rescue medication as needed (prn) throughout the study.

[2] = tested on: acute pain (surgical and non-surgical); assay: Single-arm study of safety and effectiveness of Compound 1 for acute pain, surgical and non-surgical subjects (Example 7); format: in vivo, human; settings: Compound 1 100 mg first dose, then 50 mg q12h
[3] = tested on: patients undergoing abdominoplasty; assay: Study of Compound 1 in patients undergoing abdominoplasty (NCT05034952); format: in vivo, human
[4] = tested on: acute pain after an abdominoplasty; assay: Randomized, double-blind, placebo-controlled, 3-arm study of Compound 1 in acute pain after an abdominoplasty (Example 6); settings: Compound 1 100 mg first dose, then 50 mg q12 h, placebo 8 hours
[5] = tested on: pain following bunionectomy; assay: Randomized, double-blind, placebo-controlled, 5-arm study of Compound 1 in subjects with pain following bunionectomy (Example 4); settings: for Mean SPID48: oral
Protocol: A randomized, double-blind, placebo-controlled, 5-arm, parallel-design study to evaluate the efficacy and safety of Compound 1 on acute surgical pain is conducted. Bunionectomy is a well-established, multi-dose, surgical, acute pain model. A randomized, double-blind study design was used to avoid observer bias and reduce symptoms or outcomes arising from the subjects' knowledge of treatment.
Male and female patients between the ages of 18 and 75 years (inclusive) with pain that is ≥4 on an 11-point Numeric Pain Rating Scale (NPRS) and is moderate or severe on the Verbal Categorical Rating Scale (VRS) after bunionectomy are included in the study.
Investigational Drug: Compound 1. The investigational drug was administered orally in 10 mg tablets. […] The investigational drug was administered every 12 hours (q12h). A low, mid, and high dosing regimen were tested. The first dose in the low dosing regime was 20 mg, and the subsequent doses were 10 mg g12h. The first dose in the mid dosing regime was 60 mg, and the subsequent doses were 30 mg g12h. The first dose in the high dosing regime was 100 mg, and the subsequent doses were 50 mg g12h.
The reference drug was administered orally in 5 mg/325 mg capsules, supplied as over-encapsulated 5 mg/325 mg tablets. The reference drug was administered in a dose of 5 mg/325 mg every 6 hours (q6h).
After a screening period, subjects receive a primary unilateral first metatarsal bunionectomy repair on Day minus one under regional anesthesia (Mayo and popliteal block). A continuous popliteal sciatic block infusion (0.2% ropivacaine) is started after surgery, and remains in place until approximately 3 AM on Day 1. After removal of the popliteal sciatic block, each subject is randomized when the subject requests the first dose of study drug for pain relief and reports pain ≥4 on the NPRS and moderate or severe pain on the VRS.
Randomization was stratified by site and baseline NPRS (<8 versus ≥8). To maintain the blind, all subjects receive the same number of capsules in a double-dummy design.
Compound 1 was administered every 12 hours (q12h). The final dose of Compound 1 is given 36 hours after the first dose.
Compound 1 placebo capsules are administered every 12 hours (q12h).
11-point (0 to 10) Numeric Pain Rating Scale: NPRS scores are frequently used in bunionectomy studies and are recognized by the FDA as a valid pain intensity measure. On the 11-point NPRS, a score of 0 denotes no pain, and a score of 10 denotes the worst pain intensity imaginable. Subjects reported their pain on the 11-point NPRS immediately before their first dose of the study drug (baseline NPRS score) and at intervals over 48 hour period (i.e. 0.5, 1, 1.5, 2, 3, 4, 5, 6, 8, 12, 16, 20, 24, 28, 32, 36, 40, 44, and 48 hours (±5 minutes)) after the first dose of the study drug. Pain intensity is also recorded on the NPRS immediately before each administration of rescue medication. Pain intensity scores that are collected within 4 hours after a dose of rescue medication are deemed missing, and the missing values are imputed as the intensity recorded immediately before the administration of rescue medication.
SPID-48 is the sum of the pain intensity difference (PID) over the 48 hour time period. A pain intensity score of 0 (no pain) to 10 (worse possible pain) is obtained before starting the study and throughout the 48 time period. The pain score at each assessment time is subtracted from the baseline pain score to provide the total sum score or SPID-48. A higher SPID-48 is better and indicates a reduction in pain intensity compared to the baseline score.
4-point Verbal Categorical Rating Scale: Subjects report their pain on the 4-point VRS (none, mild, moderate, or severe) immediately before their first dose of the study drug (baseline VRS).

[6] = tested on: acute pain after a bunionectomy; assay: Randomized, double-blind, placebo-controlled, 3-arm study of Compound 1 in acute pain after a bunionectomy (Example 5); settings: Compound 1 100 mg first dose, then 50 mg q12 h, placebo 8 hours
[7] = Compound 1 combined dose groups, pregabalin 100 mg tid, 12 weeks

COc1c([C@H]2[C@H](C(=O)Nc3ccnc(C(N)=O)c3)O[C@@](C)(C(F)(F)F)[C@H]2C)ccc(F)c1F [Compound 1, (2R,3S,4S,5R)-4-[[3-(3,4-difluoro-2-methoxy-phenyl)-4,5-dimethyl-5-(trifluoromethyl)tetrahydrofuran-2-carbonyl]amino]pyridine-2-carboxamide]
Change from baseline at week 12 in weekly average of daily pain on the NPRS (LS Mean) ([1]; Compound 1 23 mg qd (low dose), painful DPN): −2.18 | Change from baseline at week 12 in weekly average of daily pain on the NPRS (LS Mean) ([1]; Compound 1 46 mg qd (mid dose), painful DPN): −2.11 | Change from baseline at week 12 in weekly average of daily pain on the NPRS (LS Mean) ([1]; Compound 1 69 mg qd (high dose), painful DPN): −2.26 | Reduction in pain from baseline (NPRS) ([1]; all three Compound 1 dose groups (23, 46, 69 mg qd), 12-week treatment, painful DPN): statistically significant and clinically meaningful reduction in pain from baseline; also recorded: significant mean reduction in pain from baseline that started from week 1 | Sleep (Daily Sleep Interference Scale, DSIS) at week 12 ([1]; all three Compound 1 dose groups (23, 46, 69 mg qd), painful DPN): improvement in sleep | Patients reporting good, very good, or excellent on Patient Global Assessment (PGA) at end of treatment ([2]; all patients (256 subjects)): 83.2% | Patients reporting good, very good, or excellent on Patient Global Assessment (PGA) at end of treatment ([2]; non-surgical patients (34 subjects)): 91.2% | Patients reporting good, very good, or excellent on Patient Global Assessment (PGA) at end of treatment ([2]; surgical patients (222 subjects)): 82.0% | Serious adverse events related to study drug ([2]; up to 14 days): no serious adverse events were related to Compound 1 | Incidence of serious adverse events ([2]; up to 14 days, 256 subjects): 0.8% | Treatment discontinuations due to adverse events ([2]; up to 14 days, 256 subjects): 2.0% | Safety and tolerability ([2]; up to 14 days, surgical and non-surgical pain, 256 subjects): generally safe and well tolerated | Improvement in SPID48 [3]: statistically significant improvement in SPID48 | Median time to ≥2-point reduction in NPRS from baseline [4]: 2 h | Onset of action ([5]; Compound 1 high dose, 48 hour assessment): rapid and was sustained through the duration of assessment | Mean SPID48 ([5]; High-dose Compound 1: 100 mg first dose/50 mg every 12 hours, n = 60, NPRS 0 to 48 hours): 137.8 | Mean SPID48 difference from placebo ([5]; Low-dose Compound 1: 20 mg first dose/10 mg every 12 hours, n = 33): 11.9 | Mean SPID48 ([5]; Low-dose Compound 1: 20 mg first dose/10 mg every 12 hours, n = 33, NPRS 0 to 48 hours): 112.9 | Mean SPID48 difference from placebo ([5]; Mid-dose Compound 1: 60 mg first dose/30 mg every 12 hours, n = 62): −14.1 | Mean SPID48 ([5]; Mid-dose Compound 1: 60 mg first dose/30 mg every 12 hours, n = 62, NPRS 0 to 48 hours): 86.9 | Median time to 2-point reduction in NPRS from baseline [6]: 4 h

CC(C)C[C@H](CN)CC(=O)O [Pregabalin, reference compound]
Incidence of dizziness (adverse event) [1, 7]: 9.3% | Incidence of peripheral edema (adverse event) [1, 7]: 5.6% | Incidence of weight increased (adverse event) [1, 7]: 7.4% | Change from baseline at week 12 in weekly average of daily pain on the NPRS (LS Mean) ([1]; Pregabalin 100 mg tid, painful DPN): −2.09 | Related adverse events ([1]; patients treated with Compound 1 (combined), patients treated with pregabalin 100 mg tid, 12 weeks): 27.8%
